# In paper PMC8151276, “An Integrated Approach toward NanoBRET Tracers for Analysis of GPCR Ligand Engagement” (Molecules, 2021):
# Assays:
# Type in all cases: binding
# EDNRA = target: T1, EDNRA (Homo sapiens, UniProt P25101); test: NanoBRET screen HiBiT-EDNRA in HEK293
# T1 construct: purchased Promega (in-house HiBiT-GPCR construct library, NanoBRET)
# T1 sequence (P25101 21-427): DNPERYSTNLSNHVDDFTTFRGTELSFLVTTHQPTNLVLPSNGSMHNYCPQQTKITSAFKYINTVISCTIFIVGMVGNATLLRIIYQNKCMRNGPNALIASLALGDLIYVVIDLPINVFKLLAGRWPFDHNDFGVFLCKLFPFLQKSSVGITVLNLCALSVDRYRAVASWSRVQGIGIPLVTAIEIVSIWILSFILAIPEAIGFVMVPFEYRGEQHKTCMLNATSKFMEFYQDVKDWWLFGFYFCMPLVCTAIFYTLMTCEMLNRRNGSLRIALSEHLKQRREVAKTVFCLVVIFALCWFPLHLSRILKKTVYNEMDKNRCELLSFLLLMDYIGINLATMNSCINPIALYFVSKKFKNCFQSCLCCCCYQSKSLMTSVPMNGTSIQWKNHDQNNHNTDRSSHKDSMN
# Description: (§1) Each tracer candidate was screened across the entire library of HiBiT-GPCR constructs using NanoBRET as the detection modality. As depicted in Figure 4A, the specificity of interactions was evaluated through decrease in BRET due to competitive displacement of a bound tracer by excess parental compound. Each tracer was analyzed for binding to each HiBiT-GPCR fusion in the absence and in the presence of competing parental compound. Briefly, HEK293 cells were transfected with HiBiT-GPCR constructs diluted into promoterless DNA to reduce expression and maximize translocation to the cell surface. Each tracer candidate was then screened at concentrations of 1 μM and 0.1 μM across cells expressing these fusions. Cells were treated for 1.5 h with tracer either alone or in the presence of 20 μM competing parental compound (i.e., control). BRET was measured upon addition of purified LgBiT and subsequent complementation with HiBiT genetically fused to a GPCR. The specificity of interactions was assessed through a decrease in BRET signal due to competitive displacement of the bound tracer. To further gauge the robustness of these interactions, the fold response over the control (i.e., BRETtracer/BRETcontrol) was calculated. We chose a 1.5-fold response, which translates to ≥7-fold signal over noise as the minimal threshold required to score an interaction as positive. […]. Below we highlight the screening results obtained for our exemplary fluorescent tracers based on Clozapine, Amitriptyline and AZD1283.
# (§2) HiBiT-GPCR DNA constructs were diluted in 10 mM Tris pH 8 to a final concentration of 0.01 μg/μL, arrayed in 96-well plates and stored at −20 °C. For transfection, HEK293 cells were suspended in Opti-MEM (without phenol red) supplemented with 2% fetal bovine serum (Seradigm) and 100 units/mL penicillin–streptomycin (Gibco) at a final concentration of 220,000 cells/mL and dispensed into white 96-well plates at 90 μL/well. Subsequent transfections and screens were carried using an Agilent Bravo Automated Liquid Handling Platform. First, the 96-well HiBiT DNA arrays were diluted 25-fold in Opti-MEM (without serum or phenol red) to a final concentration of 0.0004 μg/μL and 20 μL of the diluted DNAs were transferred into new 96-well plates. Next, promoterless carrier DNA (1 μg/μL) was diluted 25-fold (0.04 μg/μL) and then dispensed into the diluted arrays at 20 μL/well. Following brief mixing, Viafect transfection reagent (Promega) diluted 16-fold into Opti-MEM was dispensed into the plates at 40 μL/well. After mixing by pipetting, plates were incubated for 10 min on the pipetting station deck. The DNA-transfection reagent complexes were then added to plates containing cells. To facilitate the screen, 10 μL of DNA-transfection reagent complexes were added in duplicates to the top 4 and bottom 4 rows, resulting in two identical 48-well arrays per plate. Plates with transfected cells were incubated for 18–20 h at 37 °C/5% CO2. A screen of each tracer across the entire library using two different concentrations requires duplicate plates of transfected cells. Depending on the number of tracers being screened, transfections can be scaled up using the same ratios. The next day, for each tracer, four 20× screening solutions in tracer dilution buffer (Promega) were prepared: two duplicates at final concentration of 20 μM and two duplicates at a final concentration of 2 μM. A competing unmodified compound was added to one of each duplicate at a final concentration of 400 μM. The four resulting solutions were diluted 4-fold in Opti-MEM without serum or phenol red to generate 5× solutions (5 µM and 0.5 µM tracer +/− 100 μM competing compound). To screen the library, a BioTek MultiFlo FX liquid dispenser was used to dispense 22.5 µL of tracer solution to the top 4 rows and 22.5 µL tracer + competing compound solution to the 4 bottom rows. Plates were briefly mixed on an orbital shaker and incubated for 1.5 h at room temperature. […]
# OXTR = target: T2, OXTR (Homo sapiens, UniProt P30559); test: NanoBRET screen HiBiT-OXTR in HEK293
# T2 construct: purchased Promega (in-house HiBiT-GPCR construct library, NanoBRET)
# T2 sequence (P30559 1-389): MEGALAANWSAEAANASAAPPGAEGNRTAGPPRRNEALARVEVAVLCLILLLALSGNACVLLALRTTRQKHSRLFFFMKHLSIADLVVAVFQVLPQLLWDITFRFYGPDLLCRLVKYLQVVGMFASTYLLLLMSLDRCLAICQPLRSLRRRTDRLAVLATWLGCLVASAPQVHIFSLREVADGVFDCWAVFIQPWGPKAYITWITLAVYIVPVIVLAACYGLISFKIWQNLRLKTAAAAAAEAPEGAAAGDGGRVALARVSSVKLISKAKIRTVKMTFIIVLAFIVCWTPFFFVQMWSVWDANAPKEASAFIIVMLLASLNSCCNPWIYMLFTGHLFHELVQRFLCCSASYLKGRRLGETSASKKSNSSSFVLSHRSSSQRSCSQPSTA
# Description: as §1, §2
# NPFFR2 = target: T3, NPFFR2 (Homo sapiens, UniProt Q9Y5X5); test: NanoBRET screen HiBiT-NPFFR2 in HEK293
# T3 construct: purchased Promega (in-house HiBiT-GPCR construct library, NanoBRET)
# T3 sequence (Q9Y5X5 whole entry): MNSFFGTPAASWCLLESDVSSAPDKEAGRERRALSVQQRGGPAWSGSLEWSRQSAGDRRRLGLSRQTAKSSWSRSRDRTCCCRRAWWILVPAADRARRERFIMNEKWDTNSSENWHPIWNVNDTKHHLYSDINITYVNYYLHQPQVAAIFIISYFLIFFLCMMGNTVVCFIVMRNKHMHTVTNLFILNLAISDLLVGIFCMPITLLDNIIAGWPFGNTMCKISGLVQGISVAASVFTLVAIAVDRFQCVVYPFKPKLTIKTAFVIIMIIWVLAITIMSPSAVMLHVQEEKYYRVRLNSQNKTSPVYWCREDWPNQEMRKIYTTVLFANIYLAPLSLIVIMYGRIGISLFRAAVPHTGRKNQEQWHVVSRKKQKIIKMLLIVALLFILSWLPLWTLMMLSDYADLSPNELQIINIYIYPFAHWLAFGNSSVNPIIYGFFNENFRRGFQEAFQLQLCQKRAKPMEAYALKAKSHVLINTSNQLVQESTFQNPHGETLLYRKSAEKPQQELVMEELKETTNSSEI
# Description: as §1, §2
# F2RL2 = target: T4, F2RL2 (Homo sapiens, UniProt O00254); test: NanoBRET screen HiBiT-F2RL2 in HEK293
# T4 construct: purchased Promega (in-house HiBiT-GPCR construct library, NanoBRET)
# T4 sequence (O00254 22-374): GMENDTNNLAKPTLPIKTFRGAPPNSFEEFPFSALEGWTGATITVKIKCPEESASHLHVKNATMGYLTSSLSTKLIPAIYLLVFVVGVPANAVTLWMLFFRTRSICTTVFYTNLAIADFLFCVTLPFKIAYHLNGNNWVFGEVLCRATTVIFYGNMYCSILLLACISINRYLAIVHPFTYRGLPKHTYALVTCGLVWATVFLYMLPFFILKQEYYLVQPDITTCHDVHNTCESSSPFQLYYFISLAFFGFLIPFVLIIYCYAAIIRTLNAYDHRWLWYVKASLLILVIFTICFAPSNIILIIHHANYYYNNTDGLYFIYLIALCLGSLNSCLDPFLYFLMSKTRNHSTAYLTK
# Description: as §1, §2
Structure (SMILES),NanoBRET Fold Response (EDNRA; 0.1μM tracer),NanoBRET Fold Response (EDNRA; 1μM tracer),NanoBRET Fold Response (OXTR; 0.1μM tracer),NanoBRET Fold Response (OXTR; 1μM tracer),NanoBRET Fold Response (NPFFR2; 0.1μM tracer),NanoBRET Fold Response (NPFFR2; 1μM tracer),NanoBRET Fold Response (F2RL2; 0.1μM tracer),NanoBRET Fold Response (F2RL2; 1μM tracer),"NanoBRET Fold Response (EDNRA; EDNRA, 0.1μM tracer)","NanoBRET Fold Response (EDNRA; EDNRA, 1μM tracer)","NanoBRET Fold Response (OXTR; OXTR, 0.1μM tracer)","NanoBRET Fold Response (OXTR; OXTR, 1μM tracer)","NanoBRET Fold Response (NPFFR2; NPFFR2, 0.1μM tracer)","NanoBRET Fold Response (NPFFR2; NPFFR2, 1μM tracer)","NanoBRET Fold Response (F2RL2; F2RL2, 0.1μM tracer)","NanoBRET Fold Response (F2RL2; F2RL2, 1μM tracer)",further results
COc1ccc2c(n1)c(CCNC(C)=O)cn2CCNC(=O)CCc1ccc2n1[B-](F)(F)[N+]1=C(c3ccc[nH]3)C=CC1=C2 [Azamelatonin-1-NB590],0.91,0.91,1.11,0.94,1.16,0.97,1.00,1.03,,,,,,,,,
COc1ccc2[nH]c(-c3ccc(CNC(=O)CCOCCOCCOCCOCCNC(=O)CCc4ccc5n4[B-](F)(F)[N+]4=C(c6ccc[nH]6)C=CC4=C5)cc3)c(CCNC(C)=O)c2n1 [AzomelatoninICO9-2-NB590],0.87,0.99,0.99,0.87,0.91,1.06,0.86,0.99,,,,,,,,,
O=C(CCOCCOCCOCCOCCNC(=O)CCc1ccc2n1[B-](F)(F)[N+]1=C(c3ccc[nH]3)C=CC1=C2)NCCCN1CCN(C2=Nc3cc(Cl)ccc3Nc3ccccc32)CC1 [Clozapine-a-2-NB590],,,,,,,,,1.04,0.90,1.03,1.01,1.00,0.97,1.02,1.20,
CN1CCN(C2=Nc3cc(Cl)ccc3Nc3ccc(CNC(=O)CCOCCOCCOCCOCCNC(=O)CCc4ccc5n4[B-](F)(F)[N+]4=C(c6ccc[nH]6)C=CC4=C5)cc32)CC1 [Clozapine-b-2-NB590],,,,,,,,,0.99,1.03,1.05,1.03,1.02,1.00,1.01,1.02,
CN1CCN(C2=Nc3cc(Cl)ccc3N(CC(=O)NCCOCCOCCOCCOCCNC(=O)CCc3ccc4n3[B-](F)(F)[N+]3=C(c5ccc[nH]5)C=CC3=C4)c3ccccc32)CC1 [Clozapine-c-2-NB590],,,,,,,,,0.99,0.87,0.97,0.96,0.98,0.99,1.20,0.97,
O=C(CCOCCOCCOCCOCCNC(=O)CCc1ccc2n1[B-](F)(F)[N+]1=C(c3ccc[nH]3)C=CC1=C2)NCCCN1CCN(C2=Nc3ccccc3Oc3ccc(Cl)cc32)CC1 [Loxapine-a-2-NB590],,,,,,,,,,,,,,,,,"NanoBRET Fold Response (EDNRA; EDNRA, tracer 0.1μM): 1.05; NanoBRET Fold Response (EDNRA; EDNRA, tracer 1μM): 0.85; NanoBRET Fold Response (OXTR; OXTR, tracer 0.1μM): 0.97; NanoBRET Fold Response (OXTR; OXTR, tracer 1μM): 1.02; NanoBRET Fold Response (NPFFR2; NPFFR2, tracer 0.1μM): 1.05; NanoBRET Fold Response (NPFFR2; NPFFR2, tracer 1μM): 1.03; NanoBRET Fold Response (F2RL2; F2RL2, tracer 0.1μM): 1.03; NanoBRET Fold Response (F2RL2; F2RL2, tracer 1μM): 1.12"
